Test results taken from US20110046220A1, “PARABEN COMPOUNDS” (CENTRE NATIONAL DE LA RECHERCHE SCIENTIFIQUE, priority 2007, published 2011).
Converted amounts (≈) assume the structure as drawn. “And” between values parts separate entries of the source, which are not always exact repeats. Identical values can stand only once. Like-named read-outs stand apart in the source and are kept apart here.

Columns and labels:
Assay type in all cases: cell-based
[1] = test system: Staphylococcus aureus (ATCC 6538); test: MBC determination by subculturing wells with no visible growth onto agar plates; details: for MBC/MIC ratio / bactericidal or bacteriostatic effect (from MBC/MIC ratio): S. aureus; for MBC: Staphylococcus aureus, ATCC6538
Method: MBCs were determined to estimate bacterial survival in wells with no visible growth after 24 h by subculturing onto agar plates to count the number of colony-forming-units (CFU/mL).
In order to determine whether the growth inhibition observed against S. aureus was relevant either of a bactericidal or a bacteriostatic effect, the ratio MBC/MIC was calculated.

[2] = test system: Staphylococcus aureus strain ATCC 6538; test: MIC determination by twofold dilution in microplates against Staphylococcus aureus; details: for MIC: Staphylococcus aureus
Method: Antimicrobial activity was tested by inhibition of growth of Gram positive bacteria Staphylococcus aureus strain ATCC 6538. All extracts and bacterial isolates from the sponge were screened for this antibacterial activity. Extracts and bacterial strains were also tested against gram negative gamma-proteobacteria (including Vibrios) and alpha-proteobacteria (Rhodobacterales), against Gram positive Bacillales (including Bacillus sp.) and against the yeast Candida albicans.
MICs of each of the compounds 1-9 according to the invention and of commercial methyl- and propyl parabens of the prior art were determined by a twofold dilution method from an initial 100 μg/mL concentration. […] Microplates were incubated for 24 hours at 30° C. with shaking (500 rpm) and optical density at 600 nm was read to estimate bacterial growth. The methyl- and propyl parabens of the prior art were obtained from the company Interchimie in Bobigny, France. […]
The results are reported in the following table 3 in which the MIC is reported in μg/ml and expressed, as in table 1, as the interval a-b, where a is the highest concentration tested at which microorganism are growing and b the lowest concentration that causes 100% growth inhibition.

[3] = test system: Microbulbifer sp. strain L4-N2; test: Antibiotic resistance/sensitivity of bacteria of the strain L4-N2; details: kanamycine 30UI; ceftazidime 30 μg
Method: Bacteria of the strain L4-N2 are gram negative, aerobic, rod-shaped, and approximately 1 μm wide by 5 to 7 μm long. They form smooth, convex and mucoid colonies, and produce a non-diffusible brown pigment. They use glucose and display beta-galactosidase, catalase, and gelatinase activities. They are resistant to ampicillin, penicillin and oxacillin and sensitive to kanamycine (30UI) and ceftazidime (30 μg).

[4] = S. aureus ATCC 6538, lowest concentration yielding colony counts <0.1% of the initial inoculum, read-out: MBC
[5] = ATCC6538, S. aureus ATCC 6538, 24 hours at 30° C., interval a-b (a highest concentration with growth, b lowest with 100% growth inhibition), triplicate, read-out: MIC
[6] = ATCC6538, S. aureus ATCC 6538, 24 hours at 30° C., interval a-b, triplicate, read-out: MIC

CCOC(=O)c1ccc(O)cc1 [Compound 1, 4-Hydroxy-benzoic acid ethyl ester]
MBC/MIC ratio [1]: >16 | MBC [1, 4]: > 100 µg/mL | MIC [2, 5]: > 602 µM | MIC [2, 6]: > 100 µg/mL

CCCCOC(=O)c1ccc(O)cc1 [Compound 2, 4-Hydroxy-benzoic acid butyl ester]
MBC/MIC ratio [1]: >16 | MBC [1]: > 100 µg/mL | MIC ([2]; ATCC6538, 24 h): 129 µM to 258 µM and 25 µg/mL to 50 µg/mL

CCCCCCCCOC(=O)c1ccc(O)cc1 [Compound 3, 4-Hydroxy-benzoic acid octyl ester]
MBC/MIC ratio [1]: 2 | bactericidal or bacteriostatic effect (from MBC/MIC ratio) [1]: bactericidal (If MBC/MIC is less than 4, the compound is bactericidal) | MBC [1, 4]: 50 to 100 µg/mL (≈ 200 to 399 µM) | MIC [2, 5]: 100 to 200 µM | MIC [2, 6]: 25 to 50 µg/mL

CCCCCCCCCCOC(=O)c1ccc(O)cc1 [Compound 4, 4-Hydroxy-benzoic acid decyl ester]
MBC/MIC ratio [1]: 16 | bactericidal or bacteriostatic effect (from MBC/MIC ratio) [1]: bacteriostatic (if MBC/MIC is between 8 and 16 and above 16, the compound is bacteriostatic) | MBC [1, 4]: 12.5 to 25 µg/mL (≈ 44.9 to 89.8 µM) | MIC [2, 5]: 2.8 to 5.6 µM | MIC [2, 6]: 0.78 to 1.56 µg/mL

CCCCCCCC(O)CCOC(=O)c1ccc(O)cc1 (stereo not shown) [Compound 5, 4-Hydroxy-benzoic acid 3-hydroxy-decyl ester]
MBC/MIC ratio [1]: >16 | MBC [1, 4]: > 100 µg/mL | MIC [2, 5]: 85 to 170 µM | MIC [2, 6]: 25 to 50 µg/mL

CC(C)CCCCCCCCOC(=O)c1ccc(O)cc1 [Compound 6]
MBC/MIC ratio [1]: 2 | bactericidal or bacteriostatic effect (from MBC/MIC ratio) [1]: bactericidal (If MBC/MIC is less than 4, the compound is bactericidal) | MBC [1, 4]: 25 to 50 µg/mL (≈ 85.5 to 171 µM) | MIC [2, 5]: 42.8 to 85.6 µM | MIC [2, 6]: 12.5 to 25 µg/mL

CC(C)CCCCCC(O)CCOC(=O)c1ccc(O)cc1 (stereo not shown) [Compound 7]
MBC/MIC ratio [1]: 2 | bactericidal or bacteriostatic effect (from MBC/MIC ratio) [1]: bactericidal (If MBC/MIC is less than 4, the compound is bactericidal) | MBC [1, 4]: 25 to 50 µg/mL (≈ 81.1 to 162 µM) | MIC [2, 5]: 40.5 to 81.1 µM | MIC [2, 6]: 12.5 to 25 µg/mL

CCCCCCCCCCCCOC(=O)c1ccc(O)cc1 [Compound 8, 4-Hydroxy-benzoic acid dodecyl ester]
MBC/MIC ratio [1]: >16 | MBC [1, 4]: > 100 µg/mL | MIC [2, 5]: 81.6 to 163 µM | MIC [2, 6]: 25 to 50 µg/mL

CCCCCC/C=C/CCCCOC(=O)c1ccc(O)cc1 [Compound 9, 4-Hydroxy-benzoic acid dodec-5-enyl ester]
MBC/MIC ratio [1]: 8 | bactericidal or bacteriostatic effect (from MBC/MIC ratio) [1]: bacteriostatic (if MBC/MIC is between 8 and 16 and above 16, the compound is bacteriostatic) | MBC [1, 4]: 50 to 100 µg/mL (≈ 164 to 328 µM) | factor of enhancement of antimicrobial activity by unsaturation of the alkyl chain (compound 9 vs compound 8) ([2]; S. aureus, compared MIC values): 4 | MIC [2, 5]: 20.5 to 41.1 µM | MIC [2, 6]: 6.25 to 12.5 µg/mL

COC(=O)c1ccc(O)cc1 [Methyl paraben, reference compound]
MBC [1, 4]: > 100 µg/mL | MIC [2, 5]: 329 to 658 µM | MIC [2, 6]: 50 to 100 µg/mL

CCCOC(=O)c1ccc(O)cc1 [Propyl paraben, reference compound]
MBC [1, 4]: > 100 µg/mL | MIC [2, 5]: 278 to 556 µM | MIC [2, 6]: 50 to 100 µg/mL

CC1(C)S[C@@H]2[C@H](NC(=O)[C@H](N)c3ccccc3)C(=O)N2[C@H]1C(=O)O [ampicillin]
resistance or sensitivity of strain L4-N2 bacteria to the antibiotic [3]: resistant

CC(C)(O/N=C(\C(=O)N[C@@H]1C(=O)N2C(C(=O)[O-])=C(C[n+]3ccccc3)CS[C@H]12)c1csc(N)n1)C(=O)O [ceftazidime]
resistance or sensitivity of strain L4-N2 bacteria to the antibiotic [3]: sensitive

NC[C@H]1O[C@H](O[C@H]2[C@H](O)[C@@H](O[C@H]3O[C@H](CO)[C@@H](O)[C@H](N)[C@H]3O)[C@H](N)C[C@@H]2N)[C@H](O)[C@@H](O)[C@@H]1O [kanamycine]
resistance or sensitivity of strain L4-N2 bacteria to the antibiotic [3]: sensitive

Cc1onc(-c2ccccc2)c1C(=O)N[C@@H]1C(=O)N2[C@@H]1SC(C)(C)[C@@H]2C(=O)O [oxacillin]
resistance or sensitivity of strain L4-N2 bacteria to the antibiotic [3]: resistant

penicillin
resistance or sensitivity of strain L4-N2 bacteria to the antibiotic [3]: resistant
